Test results as given in patent US8772288B2, “Substituted spiro[cycloalkyl-1,3′-indo]-2′(1′H)-one derivatives and their use as P38 mitogen-activated kinase inhibitors” (Almirall, S.A., priority 2008, dated 2014).

These molecules were tested against human p38alfa (SAPKa) enzyme (Homo sapiens (Human), UniProt Q16539) (assay: Inhibition Assay: p38 enzymatic activity (ATF2 phosphorylation, FRET)). Settings: read-out: p38α IC50.
Format: biochemical

human p38alfa (SAPKa) enzyme, sequence (Q16539 whole entry): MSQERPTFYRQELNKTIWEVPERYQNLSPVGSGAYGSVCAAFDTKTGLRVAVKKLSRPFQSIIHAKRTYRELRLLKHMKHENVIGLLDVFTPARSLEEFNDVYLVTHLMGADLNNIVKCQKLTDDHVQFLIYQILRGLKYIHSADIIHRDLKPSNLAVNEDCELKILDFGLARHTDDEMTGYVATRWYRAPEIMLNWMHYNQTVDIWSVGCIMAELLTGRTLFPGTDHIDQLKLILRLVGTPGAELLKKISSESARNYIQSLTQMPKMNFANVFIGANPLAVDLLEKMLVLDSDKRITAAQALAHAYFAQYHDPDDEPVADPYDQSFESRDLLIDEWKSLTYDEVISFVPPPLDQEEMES

Row | SMILES | IC50 [nM]
1 | Cc1nnc(-c2ccc(C)c(-c3ccc4c(c3)NC(=O)C43CCOCC3)c2)[nH]1 [Example 59, 6-(2-Methyl-5-(5-methyl-4H-1,2,4-triazol-3-yl)phenyl)-2′,3′,5′,6′-tetrahydrospiro[indoline-3,4′-pyran]-2-one] | 10
2 | Cc1nnc(-c2ccc(C)c(-c3ccc4c(c3)NC(=O)C43CCC(F)(F)CC3)c2)[nH]1 [Example 63, 4,4-Difluoro-6′-(2-methyl-5-(5-methyl-4H-1,2,4-triazol-3-yl)phenyl)spiro[cyclohexane-1,3′-indolin]-2′-one] | 2
3 | Cc1nnc(-c2ccc(C)c(-c3ccc4c(c3)NC(=O)C43CCC3)c2)[nH]1 [Example 54, 6′-[2-Methyl-5-(5-methyl-4H-1,2,4-triazol-3-yl)phenyl]spiro[cyclobutane-1,3′-indol]-2′(1′H)-one] | 18
4 | Cc1nnc(-c2ccc(C)c(-c3ccc4c(c3)NC(=O)C43CCCC3)c2)o1 [Example 70, 6′-(2-Methyl-5-(5-methyl-1,3,4-oxadiazol-2-yl)phenyl)spiro[cyclopentane-1,3′-indolin]-2′-one] | 32
5 | Cc1ccc(C(N)=O)cc1-c1ccc2c(c1)NC(=O)C2(C)C [Example 7, 3-(3,3-dimethyl-2-oxoindolin-6-yl)-4-methylbenzamide] | 80
6 | Cc1nnc(-c2cc(F)c(C)c(-c3ccc4c(c3)NC(=O)C43CCC(C)(O)CC3)c2)[nH]1 (stereo not drawn) [Example 65, 6′-(3-fluoro-2-methyl-5-(5-methyl-4H-1,2,4-triazol-3-yl)phenyl)-4-hydroxy-4-methylspiro[cyclohexane-1,3′-indolin]-2′-one] | 8
7 | Cc1ccc(C(=O)Nc2ccon2)cc1-c1ccc2c(c1)NC(=O)C21CCOCC1 [Example 23, N-Isoxazol-3-yl-4-methyl-3-(2-oxo-1,2,2′,3′,5′,6′-hexahydrospiro[indole-3,4′-pyran]-6-yl)benzamide] | 0.06
8 | Cc1ccc(-c2ncn[nH]2)cc1-c1ccc2c(c1)NC(=O)C21CCCC1 [Example 55, 6′-(2-Methyl-5-(4H-1,2,4-triazol-3-yl)phenyl)spiro[cyclopentane-1,3′-indolin]-2′-one] | 9
9 | Cc1nnc(-c2ccc(C)c(-c3ccc4c(c3)NC(=O)C43CCN(S(C)(=O)=O)CC3)c2)[nH]1 [Example 67, 6-(2-methyl-5-(5-methyl-4H-1,2,4-triazol-3-yl)phenyl)-1′-(methylsulfonyl)spiro[indoline-3,4′-piperidin]-2-one] | 4.7
10 | Cc1nnc(-c2ccc(C)c(-c3ccc4c(c3)NC(=O)C43CCC(O)CC3)c2)o1 (stereo not drawn) [Example 73, 4-hydroxy-6′-(2-methyl-5-(5-methyl-1,3,4-oxadiazol-2-yl)phenyl)spiro[cyclohexane-1,3′-indolin]-2′-one] | 5.7
11 | Cc1nnc(-c2ccc(C)c(-c3ccc4c(c3)NC(=O)C43CCCC3)c2)[nH]1 [Example 53, 6′-(2-Methyl-5-(5-methyl-4H-1,2,4-triazol-3-yl)phenyl)spiro[cyclopentane-1,3′-indolin]-2′-one] | 7.5
12 | Cc1ccc(C(=O)Nc2ccon2)cc1-c1ccc2c(c1)NC(=O)C2(C)C [Example 19, 3-(3,3-Dimethyl-2-oxo-2,3-dihydro-1H-indol-6-yl)-N-isoxazol-3-yl-4-methylbenzamide] | 0.04
13 | Cc1nnc(-c2cc(F)c(C)c(-c3ccc4c(c3)NC(=O)C43CCOCC3)c2)[nH]1 [Example 61, 6-[3-Fluoro-2-methyl-5-(5-methyl-4H-1,2,4-triazol-3-yl)phenyl]-2′,3′,5′,6′-tetrahydro-spiro[indole-3,4′-pyran]-2(1H)-one] | 8
14 | Cc1ccc(C(=O)NCC2CC2)cc1-c1ccc2c(c1)NC(=O)C2(C)C [Example 18, N-(Cyclopropylmethyl)-3-(3,3-dimethyl-2-oxoindolin-6-yl)-4-methylbenzamide] | 27
15 | Cc1ccc(C(=O)NC2CC2)cc1-c1ccc2c(n1)NC(=O)C21CCCC1 [Example 43, N-Cyclopropyl-4-methyl-3-(2′-oxo-1′,2′-dihydrospiro[cyclopentane-1,3′-pyrrolo[2,3-b]pyridine]-6′-yl)benzamide] | 5.6
16 | Cc1nnc(-c2ccc(C)c(-c3ccc4c(c3)NC(=O)C43CCC(F)(F)CC3)c2)o1 [Example 72, 4,4-Difluoro-6′-(2-methyl-5-(5-methyl-1,3,4-oxadiazol-2-yl)phenyl)spiro-[cyclohexane-1,3′-indolin]-2′-one] | 5.6
17 | Cc1c(F)cc(C(=O)NC2CC2)cc1-c1ccc2c(c1)NC(=O)C21CCN(S(C)(=O)=O)CC1 [Example 31, N-cyclopropyl-3-fluoro-4-methyl-5-(1′-(methylsulfonyl)-2-oxospiro[indoline-3,4′-piperidine]-6-yl)benzamide] | 1

The next lines start with the values.

Row | IC50 [nM] | SMILES
18 | 13 | Cc1ccc(C(=O)NC2CC2)cc1-c1cnc2c(c1)NC(=O)C21CCOCC1 [Example 47, N-Cyclopropyl-4-methyl-3-(2′-oxo-1′,2,2′,3,5,6-hexahydrospiro[pyran-4,3′-pyrrolo-[3,2-b]pyridin]-6′-yl)benzamide]
19 | 1.8 | Cc1ccc(C(=O)NC2CC2)cc1-c1ccc2c(c1)NC(=O)C21CCC(F)(F)CC1 [Example 32, N-Cyclopropyl-3-(4,4-difluoro-2′-oxospiro[cyclohexane-1,3′-indoline]-6′-yl)-4-methylbenzamide]
20 | 0.8 | Cc1ccc(C(=O)NC2CC2)cc1-c1ccc2c(c1)NC(=O)C21CCC(C)(O)CC1 (stereo not drawn) [Example 37, N-cyclopropyl-3-(4-hydroxy-4-methyl-2′-oxospiro[cyclohexane-1,3′-indoline]-6′-yl)-4-methylbenzamide]
21 | 72 | Cc1ccc(C(=O)NC2CC2)cc1-c1ncc2c(n1)NC(=O)C21CCCC1 [Example 52, N-Cyclopropyl-4-methyl-3-(6′-oxo-6′,7′-dihydrospiro[cyclopentane-1,5′-pyrrolo[2,3-c]pyrimidin]-2′-yl)benzamide]
22 | 1.4 | Cc1ccc(C(=O)NC2CC2)cc1-c1ccc2c(c1)NC(=O)C21CCC(O)CC1 (stereo not drawn) [Example 34, N-cyclopropyl-3-(4-hydroxy-2′-oxospiro[cyclohexane-1,3′-indoline]-6′-yl)-4-methylbenzamide]
23 | 6.7 | Cc1ccc(C(=O)NC2CC2)cc1-c1ccc2c(c1)NC(=O)C21CCS(=O)(=O)CC1 [Example 27, N-Cyclopropyl-3-(1′,1′-dioxido-2-oxo-1,2,2′,3′,5′,6′-hexahydrospiro[indole-3,4′-thiopyran]-6-yl)-4-methylbenzamide]
24 | 1 | Cc1ccc(C(=O)NC2CC2)cc1-c1ccc2c(c1)NC(=O)C21CCC(N2CCOCC2)CC1 (stereo not drawn) [Example 40, N-cyclopropyl-4-methyl-3-(4-morpholino-2′-oxospiro[cyclohexane-1,3′-indoline]-6′-yl)benzamide]
25 | 1.4 | Cc1ccc(C(=O)NC2CC2)cc1-c1ccc2c(c1)NC(=O)C21CCOCC1 [Example 22, N-Cyclopropyl-4-methyl-3-(2-oxo-2′,3′,5′,6′-tetrahydrospiro[indoline-3,4′-pyran]-6-yl)benzamide]
26 | 0.8 | Cc1ccc(C(=O)NC2CC2)cc1-c1cc2c(cn1)C1(CCCC1)C(=O)N2 [Example 51, N-Cyclopropyl-4-methyl-3-(2′-oxo-1′,2′-dihydrospiro[cyclopentane-1,3′-pyrrolo[3,2-c]pyridin]-6′-yl)benzamide]
27 | 62 | Cc1ccc(C(=O)NC2CC2)cc1-c1cnc2c(c1)NC(=O)C2(C)C [Example 45, N-Cyclopropyl-3-(3,3-dimethyl-2-oxo-2,3-dihydro-1H-pyrrolo[3,2-b]pyridin-6-yl)-4-methylbenzamide]
